# Reference: ChEMBL document CHEMBL3817774, “Pterostilbene-mediated Nrf2 activation: Mechanistic insights on Keap1:Nrf2 interface” (Bioorg Med Chem, 2016)
# Tests used:
# Format in all cases: cell-based
# [1] = target: T1, Nuclear factor erythroid 2-related factor 2 (Mus musculus) (UniProt Q60795); assay: Activation of Nrf2 in mouse MIN6 cells assessed as increase in nuclear Nrf2 translocation by Western blot analysis
# T1 sequence (whole entry): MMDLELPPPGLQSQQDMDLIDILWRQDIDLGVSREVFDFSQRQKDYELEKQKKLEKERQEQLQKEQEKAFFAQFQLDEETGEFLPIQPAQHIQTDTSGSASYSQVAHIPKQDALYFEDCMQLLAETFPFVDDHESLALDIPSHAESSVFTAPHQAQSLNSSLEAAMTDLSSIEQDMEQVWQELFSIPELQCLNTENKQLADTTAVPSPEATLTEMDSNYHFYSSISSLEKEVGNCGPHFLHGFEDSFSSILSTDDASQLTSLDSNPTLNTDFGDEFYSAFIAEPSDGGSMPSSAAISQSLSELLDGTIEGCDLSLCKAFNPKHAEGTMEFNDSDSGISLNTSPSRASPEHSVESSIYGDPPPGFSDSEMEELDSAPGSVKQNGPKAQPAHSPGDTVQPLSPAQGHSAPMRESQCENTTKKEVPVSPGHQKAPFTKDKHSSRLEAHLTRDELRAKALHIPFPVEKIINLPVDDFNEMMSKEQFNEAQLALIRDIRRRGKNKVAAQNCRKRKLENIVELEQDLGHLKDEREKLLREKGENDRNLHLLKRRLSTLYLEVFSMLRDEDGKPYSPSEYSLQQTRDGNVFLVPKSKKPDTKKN
# [2] = target: T1, Nuclear factor erythroid 2-related factor 2 (Mus musculus); assay: Activation of Nrf2 in mouse MIN6 cells assessed as decrease in cytoplasmic Nrf2 fraction by Western blot analysis
# [3] = target: T1, Nuclear factor erythroid 2-related factor 2 (Mus musculus); assay: Activation of Nrf2 in mouse MIN6 cells assessed as upregulation of human NQO1-ARE-luciferase incubated for 8 hrs by luminometric assay relative to control
# [4] = target: T1, Nuclear factor erythroid 2-related factor 2 (Mus musculus); assay: Activation of Nrf2 in mouse MIN6 cells assessed as upregulation of GST1-ARE-luciferase incubated for 8 hrs by luminometric assay relative to control
# [5] = target: T2, Keap1/Nrf2 (Homo sapiens) (UniProt Q16236+Q14145); assay: Inhibition of Nrf2-Keap1 (unknown origin) interaction co-expressed in HEK293T cells using D-luciferin as substrate assessed as decrease in luciferase signal intensity incubated for 24 hrs by bioluminescence-based IVIS imaging analysis; conditions: HEK-293T
# [6] = target: T2, Keap1/Nrf2 (Homo sapiens); assay: Inhibition of Nrf2-Keap1 (unknown origin) interaction co-expressed in HEK293T cells using D-luciferin as substrate assessed as decrease in luciferase signal intensity at 0.5 to 10 uM by bioluminescence-based IVIS imaging analysis; conditions: HEK-293T, TDE = time-dependent effect
# T2 sequence (Q14145 whole entry, looked up): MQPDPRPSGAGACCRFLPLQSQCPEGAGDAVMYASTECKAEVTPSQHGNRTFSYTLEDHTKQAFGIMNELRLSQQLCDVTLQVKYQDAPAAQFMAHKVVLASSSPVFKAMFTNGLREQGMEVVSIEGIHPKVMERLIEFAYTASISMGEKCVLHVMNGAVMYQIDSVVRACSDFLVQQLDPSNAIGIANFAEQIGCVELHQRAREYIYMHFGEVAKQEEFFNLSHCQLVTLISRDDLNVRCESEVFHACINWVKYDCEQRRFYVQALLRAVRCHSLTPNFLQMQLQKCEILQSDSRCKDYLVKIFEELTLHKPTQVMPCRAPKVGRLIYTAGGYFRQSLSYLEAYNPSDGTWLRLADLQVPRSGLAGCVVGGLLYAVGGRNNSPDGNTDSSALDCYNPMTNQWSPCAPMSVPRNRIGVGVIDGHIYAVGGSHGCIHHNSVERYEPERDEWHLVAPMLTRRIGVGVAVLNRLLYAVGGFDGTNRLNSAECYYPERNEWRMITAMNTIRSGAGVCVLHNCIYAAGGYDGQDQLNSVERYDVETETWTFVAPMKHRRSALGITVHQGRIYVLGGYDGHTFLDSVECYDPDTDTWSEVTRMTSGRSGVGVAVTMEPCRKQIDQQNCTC
# T2 sequence (Q16236 whole entry, looked up): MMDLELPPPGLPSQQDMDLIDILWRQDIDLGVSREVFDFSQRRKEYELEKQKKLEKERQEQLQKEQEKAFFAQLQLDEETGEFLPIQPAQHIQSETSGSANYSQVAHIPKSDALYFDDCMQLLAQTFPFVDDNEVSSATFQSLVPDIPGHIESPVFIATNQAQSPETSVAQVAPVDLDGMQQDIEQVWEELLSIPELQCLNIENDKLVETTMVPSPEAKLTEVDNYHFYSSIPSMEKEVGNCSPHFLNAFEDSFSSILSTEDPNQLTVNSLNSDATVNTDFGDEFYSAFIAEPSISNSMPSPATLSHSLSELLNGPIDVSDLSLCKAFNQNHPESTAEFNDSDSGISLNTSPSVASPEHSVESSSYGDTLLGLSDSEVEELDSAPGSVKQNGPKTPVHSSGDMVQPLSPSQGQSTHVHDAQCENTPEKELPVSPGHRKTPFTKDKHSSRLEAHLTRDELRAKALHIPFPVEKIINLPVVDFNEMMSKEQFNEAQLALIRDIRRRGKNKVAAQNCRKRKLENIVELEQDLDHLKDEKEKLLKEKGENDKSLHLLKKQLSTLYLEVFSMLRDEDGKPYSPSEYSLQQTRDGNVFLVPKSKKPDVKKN
compound,measurement,setting,value
COc1cc(/C=C/c2ccc(O)cc2)cc(OC)c1,Activity,[1],Dose-dependent effect
same,Activity,[2],Dose-dependent effect
same,Activity,[3],Dose-dependent effect
same,fold change (FC),[3],2
same,Activity,[4],Dose-dependent effect
same,fold change (FC),[4],2
same,inhibition,[5],Dose-dependent effect
same,inhibition,[6],tde
